Reference: patent publication US3979508A, “Compositions and methods therewith for penicillin hypersensitivity detection” (Kremers-Urban Company, priority 1975, dated 1976)
Several values for one entry are separate records, joined by “and”; a condition that tells them apart may be missing. Identical values can stand only once.

Test system: penicillin hypersensitivity (patients)
Assay: Clinical evaluation by 26 investigators: scratch/intradermal skin tests with PPL and Penicillin G (Tables IV-VII, IX-XI)
Assay type: in vivo, human
Details: for TOTAL (+) No. / TOTAL (+) Percent of total positive: skin reactive penicillin allergy patients
Procedure: Twenty-six clinical investigators contributed a total of 1160 cases to the evaluation. Patients were tested according to a protocol as follows:
1. All patients being subjected to allergy investigation were to be tested for penicillin hypersensitivity. Two preparations were to be used. These are:
2. Penicillin G (Benzyl Penicillin) in a concentration of 10,000 units per cc.
For maximum safety, it was recommended that the tests first be done by the scratch technique. Intradermal tests were then to be done on those showing negative scratch tests. In cases where the penicillin sensitivity was suspected to be of a violent character, more dilute reagents were recommended at the discretion of the individual investigator.
A uniform technique was recommended for the performance of the intradermal tests. Only a minimal amount of testing reagent was to be injected so as to make a barely discernible intradermal bleb. The amount necessary for this injection is about 0.01 to 0.03 cc. It was recognized that the intrepretation of the test results is an important matter. The reactions were to be recorded in terms of (1) the time required for the appearance of a reaction, (2) the size of erythema and (3) the size of whealing. These were to be recorded as actual measurements. Some objective measurement of dermographism was also to be recorded.
It was also contemplated that all patients who were to be treated with penicillin be tested as recommended above, even though they had previously received penicillin with impunity.
A comprehensive clinical history was takan on each patient with particular regard to previous penicillin therapy, and reaction.
In order to properly analyze the data on such a large number of patients, a data processing system was utilized.
Table IV summarizes the skin test results on all patients, without regard to other specific factors. […] It will also be noted that a significant number of patients reacted only to PPL, and another group only to Pen G. Therefore, to detect the maximum number of reactors, both test reagents would be required. A technical problem was classification of the ambiguous or borderline reactors, particularly those showing only erythema. Attempts to correlate the appearance of the erythematous flare without wheal formation with a history of penicillin hypersensitivity were unsuccessful. In some instances, however, erythema without wheal did appear to be associated with hypersensitivity to the antibiotic. The time of development of erythema without wheal varied widely from a few minutes to more than 7 days which also made its importance questionable. as a diagnostic sign. For these reasons erythema alone responses were counted with the negatives. In some instances, however, data will be presented in which erythema without wheal are counted as positive responses (figures appearing in parentheses).

[1] = Group I (675 patients): penicillin Rx, no hypersensitivity, erythema only counted as negative
[2] = Group I (675 patients): penicillin Rx, no hypersensitivity, parentheses: erythema only (ambiguous) counted as positive
[3] = Group II (352 patients): penicillin Rx & hypersensitive, erythema only counted as negative
[4] = Group II (352 patients): penicillin Rx & hypersensitive, parentheses: erythema only (ambiguous) counted as positive
[5] = Group III (70 patients): no penicillin Rx in past, erythema only counted as negative
[6] = Group III (70 patients): no penicillin Rx in past, parentheses: erythema only (ambiguous) counted as positive
[7] = Group IV (56 patients): no data, erythema only counted as negative
[8] = Group IV (56 patients): no data, parentheses: erythema only (ambiguous) counted as positive
[9] = TOTALS (1153 patients), erythema only counted as negative
[10] = TOTALS (1153 patients), parentheses: erythema only (ambiguous) counted as positive
[11] = TOTALS, all patients (1153 tested), erythema only counted as negative
[12] = TOTALS, all patients (1153 tested), parentheses: erythema only (ambiguous) counted as positive
[13] = all patients (1153 tested), erythema only counted as negative
[14] = all patients (1153 tested), parentheses: erythema only (ambiguous) counted as positive
[15] = history of therapy: Multi Courses (177 tested)
[16] = history of therapy: One Course (249 tested)
[17] = history of therapy: One Dose (152 tested)
[18] = history of therapy: TOTALS (578 tested)
[19] = penicillin reaction between 30 minutes and 24 hours post therapy (87 patients), erythema only counted as negative
[20] = penicillin reaction between 30 minutes and 24 hours post therapy (87 patients), parentheses: erythema only (ambiguous) counted as positive
[21] = penicillin reaction more than 24 hours post therapy (144 patients), erythema only counted as negative
[22] = penicillin reaction more than 24 hours post therapy (144 patients), parentheses: erythema only (ambiguous) counted as positive
[23] = penicillin reaction within 30 minutes post therapy (56 patients), erythema only counted as negative
[24] = penicillin reaction within 30 minutes post therapy (56 patients), parentheses: erythema only (ambiguous) counted as positive
[25] = reason for testing: "Penicillin" (240 tested)
[26] = reason for testing: Other Substances (463 tested)
[27] = reaction between 30 minutes and 24 hours post therapy, erythema only counted as negative
[28] = reaction between 30 minutes and 24 hours post therapy, parentheses: erythema only (ambiguous) counted as positive
[29] = reaction more than 24 hours post therapy, parentheses: erythema only (ambiguous) counted as positive
[30] = reaction within 30 minutes post therapy, parentheses: erythema only (ambiguous) counted as positive
[31] = type of hypersensitivity reaction: Skin (309 tested)
[32] = type of hypersensitivity reaction: Visceral (43 tested)

## penicilloyl-poly-L-lysine [PPL]
[1]
  Skin Test (+) No.: 36
  Skin Test (+) Percent: 5.3%
  Skin Test (-) No.: 639
  Skin Test (-) Percent: 94.7%
[2]
  Skin Test (+) No.: 78
  Skin Test (+) Percent: 11.6%
  Skin Test (-) No.: 597
  Skin Test (-) Percent: 88.4%
[3]
  Skin Test (+) No.: 73
  Skin Test (+) Percent: 20.7%
  Skin Test (-) No.: 279
  Skin Test (-) Percent: 79.3%
[4]
  Skin Test (+) No.: 97
  Skin Test (+) Percent: 27.6%
  Skin Test (-) No.: 255
  Skin Test (-) Percent: 72.4%
[5]
  Skin Test (+) No.: 1
  Skin Test (+) Percent: 1.4%
  Skin Test (-) No.: 69
  Skin Test (-) Percent: 98.6%
[6]
  Skin Test (+) No.: 6
  Skin Test (+) Percent: 8.6%
  Skin Test (-) No.: 64
  Skin Test (-) Percent: 91.4%
[7]
  Skin Test (+) No.: 3
  Skin Test (+) Percent: 5.4%
  Skin Test (-) No.: 53
  Skin Test (-) Percent: 94.6%
[8]
  Skin Test (+) No.: 4
  Skin Test (+) Percent: 7.1%
  Skin Test (-) No.: 52
  Skin Test (-) Percent: 92.9%
No reactions (675 tested)
  SKIN TEST RESPONSE No.: 36
  SKIN TEST RESPONSE Percent: 5.3%
[9]
  Skin Test (-) No.: 1040
  Skin Test (-) Percent: 90.2%
[10]
  Skin Test (-) No.: 968
  Skin Test (-) Percent: 84.0%
[11]
  Skin Test (+) No.: 113
  Skin Test (+) Percent: 9.8%
[12]
  Skin Test (+) No.: 185
  Skin Test (+) Percent: 16.1% and 16.0%
[13]
  PPL (+) PG (+) No.: 34
  PPL (+) PG (+) Percent: 3.0%
  PPL (+) PG (-) No.: 79
  PPL (+) PG (-) Percent: 6.9%
  PPL (-) PG (+) No.: 38
  PPL (-) PG (+) Percent: 3.3%
  PPL (-) PG (-) No.: 1002
  PPL (-) PG (-) Percent: 86.9%
[14]
  PPL (+) PG (+) No.: 80
  PPL (+) PG (+) Percent: 6.9%
  PPL (+) PG (-) No.: 105
  PPL (+) PG (-) Percent: 9.1%
  PPL (-) PG (+) No.: 49
  PPL (-) PG (+) Percent: 4.3%
  PPL (-) PG (-) No.: 919
  PPL (-) PG (-) Percent: 79.7%
Delayed (after 24 hours) group
  positive skin tests, patients positive/patients in group: 24/144
Delayed (after 24 hours) group, 144 patients
  positive skin tests, percent of group: 16.7%
[15]
  Skin Reactions PPL- / PEN G- No.: 14
  Skin Reactions PPL- / PEN G- Percent: 7.9%
[16]
  Skin Reactions PPL- / PEN G- No.: 14
  Skin Reactions PPL- / PEN G- Percent: 5.6%
[17]
  Skin Reactions PPL- / PEN G- No.: 24
  Skin Reactions PPL- / PEN G- Percent: 15.8%
[18]
  Skin Reactions PPL- / PEN G- No.: 52
  Skin Reactions PPL- / PEN G- Percent: 9.0%
Immediate reacting group (within 30 minutes)
  positive skin tests, patients positive/patients in group: 26/56
Immediate reacting group (within 30 minutes), 56 patients
  positive skin tests, percent of group: 46% and 46.5%
Immediate reactor group
  percent of skin-test positive patients that would be missed if only this reagent were used as skin test antigen: 16%
[19]
  PL (+) PG (+) No.: 12
  PL (+) PG (+) Percent: 13.8%
  PPL (+) PG (-) No.: 9
  PPL (+) PG (-) Percent: 10.4%
  PPL (-) PG (+) No.: 5
  PPL (-) PG (+) Percent: 5.7%
  PPL (-) PG (-) No.: 61
  PPL (-) PG (-) Percent: 70.0%
[20]
  PL (+) PG (+) No.: 14
  PL (+) PG (+) Percent: 16.1%
  PPL (+) PG (-) No.: 10
  PPL (+) PG (-) Percent: 11.5%
  PPL (-) PG (+) No.: 7
  PPL (-) PG (+) Percent: 8.0%
  PPL (-) PG (-) No.: 56
  PPL (-) PG (-) Percent: 64.4%
[21]
  PL (+) PG (+) No.: 8
  PL (+) PG (+) Percent: 5.6%
  PPL (+) PG (-) No.: 16
  PPL (+) PG (-) Percent: 11.1%
  PPL (-) PG (+) No.: 9
  PPL (-) PG (+) Percent: 6.2%
  PPL (-) PG (-) No.: 111
  PPL (-) PG (-) Percent: 77.1%
[22]
  PL (+) PG (+) No.: 11
  PL (+) PG (+) Percent: 7.6%
  PPL (+) PG (-) No.: 22
  PPL (+) PG (-) Percent: 15.3%
  PPL (-) PG (+) No.: 11
  PPL (-) PG (+) Percent: 7.6%
  PPL (-) PG (-) No.: 100
  PPL (-) PG (-) Percent: 69.4%
[23]
  PL (+) PG (+) No.: 12
  PL (+) PG (+) Percent: 21.4%
  PPL (+) PG (-) No.: 14
  PPL (+) PG (-) Percent: 25.0%
  PPL (-) PG (+) No.: 5
  PPL (-) PG (+) Percent: 8.9%
  PPL (-) PG (-) No.: 25
  PPL (-) PG (-) Percent: 44.6%
[24]
  PL (+) PG (+) No.: 15
  PL (+) PG (+) Percent: 26.8%
  PPL (+) PG (-) No.: 16
  PPL (+) PG (-) Percent: 28.6%
  PPL (-) PG (+) No.: 5
  PPL (-) PG (+) Percent: 8.9%
  PPL (-) PG (-) No.: 20
  PPL (-) PG (-) Percent: 35.7%
[25]
  Skin Test (+) No.: 31
  Skin Test (+) Percent: 12.9%
[26]
  Skin Test (+) No.: 21
  Skin Test (+) Percent: 4.5%
[27]
  TOTAL (+) No.: 21
  TOTAL (+) Percent of total positive: 80.8%
[28]
  TOTAL (+) No.: 24
  TOTAL (+) Percent of total positive: 77.4%
Reaction more than 24 hours post therapy, erythema only counted as negative
  TOTAL (+) No.: 24
[29]
  TOTAL (+) No.: 33
  TOTAL (+) Percent of total positive: 75.0%
Reaction within 30 minutes post therapy, erythema only counted as negative
  TOTAL (+) No.: 26
[30]
  TOTAL (+) No.: 31
  TOTAL (+) Percent of total positive: 86.1%
[31]
  SKIN TEST RESPONSE No.: 66
  SKIN TEST RESPONSE Percent: 21.4%
[32]
  SKIN TEST RESPONSE No.: 10
  SKIN TEST RESPONSE Percent: 23.3%
